Measured values reported in article PMC12679539, “Synthesis and evaluation of nitroheterocyclic aromatic adamantane amides with trypanocidal activity. Part II” (RSC Medicinal Chemistry, 2025).

How the values were obtained:
[1] = test system: bloodstream-form Trypanosoma brucei; experiment: Activity against bloodstream-form Trypanosoma brucei (Alamar Blue growth inhibition); assay type: cell-based, Trypanosoma brucei (strain 427); conditions: for IC50 / IC90: Trypanosoma brucei, bloodstream form; for IC50: concentration that inhibits growth by 50%, read-out: T. brucei IC50; for IC90: concentration that inhibits growth by 90%, read-out: T. brucei IC90; for S.I. (selectivity index): ratio of IC50 values obtained with L6 cells and T. brucei
Description: (§1) Bloodstream form T. brucei (strain 427) were cultured at 37 °C in modified Iscove's medium. Trypanocidal activity was assessed by growing parasites in microtiter plates in the presence of various drug concentrations. […] The plates were incubated for 48 hours at 37 °C and 20 μL Alamar Blue was then added to each well. After an additional overnight incubation, the fluorescence was determined using a Gemini fluorescent plate reader (Molecular Devices). Inhibition of growth was calculated by comparison with control values and IC50 and IC90 values were determined in triplicate using linear regression analysis.

[2] = test system: L6 cells; experiment: Cytotoxic activity against rat skeletal myoblast L6 cells (Alamar Blue); assay type: cell-based; conditions: 120 h, cytotoxicity, 5 days
Description: The cytotoxicity against mammalian cells was assessed using microtitre plates. Briefly, L6 cells (a rat skeletal muscle line) were seeded at 1 × 10^4 mL^−1 in 200 μL of RPMI-1640 growth medium (with 10% fetal calf serum) containing 7 different compound concentrations in a range previously established to encompass both the IC50 and IC90 values. The plates were incubated for 5 days at 37 °C and 20 μL Alamar Blue (Biosource Ltd, Wilton, North Yorkshire England.) was then added to each well. After an additional 8 hours incubation, the fluorescence was determined using a Gemini fluorescent plate reader (Molecular Devices). Inhibition of growth was calculated by comparison with control values and IC50 and IC90 values were determined in triplicate using linear regression analysis.

[3] = test system: T. cruzi epimastigotes; experiment: Activity against Trypanosoma cruzi epimastigotes (Alamar Blue growth inhibition); assay type: cell-based, Trypanosoma cruzi (strain CL Brener); conditions: CL Brener
Description: as §1, with “Trypanocidal” for “Bloodstream form T. brucei (strain 427) were cultured at 37 °C in modified Iscove's medium. Trypanocidal”, “4 days” for “48 hours”, “28” for “37”, “Blue (Biosource UK Ltd)” for “Blue”, “3 days” for “overnight”

[4] = test system: T. cruzi intracellular amastigotes; experiment: microbe, parasite or virus in culture; assay type: cell-based, Trypanosoma cruzi CL Brener PpyRE9h:mScarlet; conditions: Trypanosoma cruzi, 120 h; in HeLa cells, 5 days
Description: Assays were performed in 96-well black (clear bottom) microtitre plates (Corning Inc.). HeLa ^† cells were seeded at 10^4 per well, incubated for 3 days, and then infected with T. cruzi CL Brener PpyRE9h : mScarlet[25] culture form trypomastigotes (1 : 1 multiplicity of infection). After 16 hours, extracellular parasites were removed by washing in growth medium (×3), test compounds were added, and the plates incubated for 5 days. Fluorescence intensities were then determined using a BMG FLUOstar Omega plate reader (ex 545 nm, em 590 nm), and the data analysed using GraphPad Prism 9.0 software. The values were expressed as IC50/90 ± SD and are the mean of triplicate experiments.

[5] = test system: L. infantum promastigotes; experiment: Activity against Leishmania infantum promastigotes (resazurin assay); assay type: cell-based, Leishmania infantum (MHOM/MA/67/ITMAP-263); conditions: for IC50: Leishmania infantum, promastigotes, 72 h, 95% CI in brackets; for SI (promastigotes) CC50/Li IC50: THP-1 CC50 / L. infantum promastigote IC50
Description: Promastigotes from the L. infantum strain (MHOM/MA/67/ITMAP-263) were cultivated in 5 ml of Schneider's insect medium, which was supplemented with 10% heat-inactivated fetal bovine serum (FBS), 200 U ml^−1 of penicillin/streptomycin, 6 μg ml^−1 of phenol red, and 5 mM of HEPES. The cultures were maintained in an incubator at 27 °C and diluted to a concentration of 2 × 10^5 cells per ml every 5 days. For the assays the parasites used were equivalent to late/log with two or three days of culture.
The efficacy of the compounds against L. infantum promastigotes was evaluated using a resazurin-based assay. Parasites were added to 100 μl of serial dilutions of the compounds in supplemented complete medium at a cell density of 5 × 10^5 ml^−1. As a quality control, a dose–response curve with the antileishmanial drug miltefosine was included in all assays. The final volume of each assay was 200 μl per well, and each condition was tested in duplicate. After a 72-hour incubation under specific conditions for each parasite, 20 μl of a 0.5 mM resazurin solution was added, and the plates were incubated for an additional 4 hours under the same conditions. Fluorescence was measured at 544 nm for excitation and 590 nm for emission using a Synergy 2 Multi-Mode Reader (Biotek, Winooski, VT, USA). Results were expressed as the percentage of parasite growth inhibition compared to controls (untreated parasites) and represent the average of at least three independent experiments. The effect was evaluated by determining the IC50 value (the concentration required to inhibit 50% growth), calculated using non-linear regression curves via GraphPad Prism version 8.1.1 for Windows (GraphPad Software, San Diego, CA, USA).

[6] = Cytotoxicity on THP-1-derived macrophages (MTT assay); assay type: cell-based; conditions: human, THP-1-derived macrophages (PMA-differentiated), value or interval
Description: The THP-1 cell line, a human leukemia line (ATCC® TIB-202™), was cultured in RPMI-1640 medium supplemented with 10% heat-inactivated fetal bovine serum (FBS), 2 mM. L-Glutamine, 100 IU mL^−1 penicillin/streptomycin, and 20 mM HEPES. The cells were maintained in a humidified incubator at 37 °C with 5% CO2. Subculturing was performed every three days, using 20 mL of media at a concentration of 2 × 10^5 cells per mL in a T75 flask. All cell culture reagents were purchased from Lonza Bioscience (Morrisville, NC).
The cytotoxicity of the compounds on THP-1-derived macrophages was evaluated using the colorimetric MTT assay (3-(4,5-dimethylthiazol-2-yl)-2,5-diphenyltetrazolium bromide), as described in Magoulas et al. (2021).[28] THP-1 cells were suspended in complete RPMI medium at a density of 1 × 10^6 cells per mL, and 100 μL of this suspension was seeded into each well of a 96-well plate. The cells were differentiated into macrophages by adding 40 ng mL^−1 of phorbol-myristate 13-acetate (PMA, Sigma, Saint Louis, MI, USA) for 24 hours, followed by replacement with fresh medium for an additional 24 hours. Subsequently, the cells were incubated with 100 μL of various compounds, diluted in complete RPMI medium, at concentrations ranging from 100 to 12.5 μM. Each condition was tested in triplicate. After 72 hours of incubation at 37 °C with 5% CO2, the medium was removed, and 200 μL of a 0.5 mg mL^−1 MTT solution, diluted in RPMI, was added to each well. The plates were incubated for an additional 4 hours. Following this incubation, 160 μL of the medium was removed and replaced with 160 μL of 2-propanol. Absorbance was measured at 570 nm using a Synergy 2 Multi-Mode Reader (Biotek, Winooski, VT, USA). Cytotoxicity was determined by presenting the CC50 (the concentration of the drug that reduces cell viability by 50%) interval or by calculating the CC50 value through non-linear regression analysis using GraphPad Prism version 8.1.1 for Windows (GraphPad Software, San Diego, CA, USA). The results represent the average of at least three independent experiments.

Structure (SMILES)	IC50 [1]	IC90 [1]	S.I. (selectivity index) [1]	IC50 [2]	IC50 [3]	IC90 [3]	IC50 [4]	IC90 [4]	IC50 [5]	CC50 at 72 h [6]	SI (promastigotes) CC50/Li IC50 [5]
O=C(NCCCn1cnc([N+](=O)[O-])n1)c1ccc(C23CC4CC(CC(C4)C2)C3)cc1 [6d, 4-(1-Adamantyl)-N-[3-(3-nitro-1H-1,2,4-triazol-1-yl)propyl] benzamide]	180 ± 50 nM	310 ± 40 nM	123	22 ± 1 µM	450 ± 10 nM	1100 ± 20 nM	3.73 ± 0.44 µM	8.42 ± 0.44 µM	0.27 µM	50 to 100 µM	–
O=C(Cn1ccnc1[N+](=O)[O-])NCc1ccc(C23CC4CC(CC(C4)C2)C3)cc1 [3b, N-[4-(1-Adamantyl)benzyl]-2-(2-nitro-1H-imidazol-1-yl)acetamide]	–	–	–	–	–	–	–	–	13.8 µM	50 to 100 µM	–
CSc1ccc(OCc2ncc([N+](=O)[O-])n2C)cc1 [Fxd, fexinidazole, reference compound]	2400 ± 200 nM	–	–	–	–	–	–	–	–	–	–
O=C(CCc1ccc(C23CC4CC(CC(C4)C2)C3)cc1)NCCCn1cnc([N+](=O)[O-])n1 [6f, 3-[4-(1-Adamantyl)phenyl]-N-[3-(3-nitro-1H-1,2,4-triazol-1-yl)propyl]propanamide]	140 ± 20 nM	280 ± 10 nM	134	19 ± 2 µM	440 ± 20 nM	910 ± 10 nM	2.44 ± 0.57 µM	8.23 ± 1.78 µM	0.39 µM	50 to 100 µM	–
O=C(Cc1ccc(C23CC4CC(CC(C4)C2)C3)cc1)NCCCn1ccnc1[N+](=O)[O-] [5b, 2-[4-(1-Adamantyl)phenyl]-N-[3-(2-nitro-1H-imidazol-1-yl)propyl] acetamide]	–	–	–	–	–	–	–	–	4.81 µM	50 to 100 µM	–
O=C(NCCc1ccc(C23CC4CC(CC(C4)C2)C3)cc1)c1ccc([N+](=O)[O-])o1 [1b]	–	–	–	–	–	–	–	–	0.66 µM	50 to 100 µM	–
O=C(NCc1ccc(C23CC4CC(CC(C4)C2)C3)cc1)c1ccc([N+](=O)[O-])o1 [1a]	–	–	–	–	–	–	–	–	3.46 µM	> 100 µM	SI > 29
O=C(Cn1cnc([N+](=O)[O-])n1)Nc1ccc(C23CC4CC(CC(C4)C2)C3)cc1 [7b, N-[4-(1-Adamantyl)phenyl]-2-(3-nitro-1H-1,2,4-triazol-1-yl)acetamide]	200 ± 70 nM	910 ± 190 nM	35	7.1 ± 0.3 µM	–	–	–	–	–	–	–
O=C(Cn1ccnc1[N+](=O)[O-])Nc1ccc(C23CC4CC(CC(C4)C2)C3)cc1 [3a, N-[4-(1-Adamantyl)phenyl]-2-(2-nitro-1H-imidazol-1-yl)acetamide]	–	–	–	–	–	–	–	–	0.7 µM	25 to 100 µM	–
O=C(NCCn1cnc([N+](=O)[O-])n1)c1ccc(C23CC4CC(CC(C4)C2)C3)cc1 [6a, 4-(1-Adamantyl)-N-[2-(3-nitro-1H-1,2,4-triazol-1-yl)ethyl] benzamide]	230 ± 50 nM	360 ± 30 nM	120	28 ± 7 µM	540 ± 20 nM	1200 ± 10 nM	4.88 ± 0.51 µM	21.4 ± 3.4 µM	0.74 µM	25 to 50 µM	–
O=C(Cn1cnc([N+](=O)[O-])n1)Nc1ccccc1C12CC3CC(CC(C3)C1)C2 [7c, N-[2-(1-Adamantyl)phenyl]-2-(3-nitro-1H-1,2,4-triazol-1-yl)acetamide]	> 25000 nM	> 25000 nM	–	–	> 25000 nM	> 25000 nM	–	–	–	–	–
O=C(Nc1ccc(C2C3CC4CC(C3)CC2C4)cc1)c1ccc([N+](=O)[O-])o1 (stereo not shown) [2a, N-[4-(2-Adamantyl)phenyl]-5-nitrofuran-2-carboxamide]	130 ± 40 nM	330 ± 20 nM	4	0.47 ± 0.07 µM	550 ± 50 nM	1200 ± 30 nM	–	–	0.12 µM	1.56 to 6.25 µM	–
O=C(Nc1ccc(C23CC4CC(CC(C4)C2)C3)cc1)c1ccc([N+](=O)[O-])o1 [7a, N-[4-(1-Adamantyl)phenyl]-5-nitrofuran-2-carboxamide]	91 ± 5 nM	220 ± 10 nM	–	< 0.03 µM	> 25 nM	> 25 nM	–	–	0.76 µM	6.25 to 25 µM	–
O=C(Cc1ccc(C23CC4CC(CC(C4)C2)C3)cc1)NCCn1ccnc1[N+](=O)[O-] [5a, 2-[4-(1-Adamantyl)phenyl]-N-[2-(2-nitro-1H-imidazol-1-yl)ethyl] acetamide]	–	–	–	–	–	–	–	–	3.48 µM	25 to 50 µM	–
O=C(Cn1ccnc1[N+](=O)[O-])NCc1ccc(C2C3CC4CC(C3)CC2C4)cc1 (stereo not shown) [4b, N-[4-(2-Adamantyl)benzyl]-2-(2-nitro-1H-imidazol-1-yl)acetamide]	–	–	–	–	–	–	–	–	> 40 µM	> 100 µM	–
O=C(Cn1ccnc1[N+](=O)[O-])NCCc1ccc(C23CC4CC(CC(C4)C2)C3)cc1 [3c, N-[4-(1-Adamantyl)phenethyl]-2-(2-nitro-1H-imidazol-1-yl) acetamide]	–	–	–	–	–	–	–	–	22.1 µM	50 to 100 µM	–
O=C(NCCc1ccc(C2C3CC4CC(C3)CC2C4)cc1)c1ccc([N+](=O)[O-])o1 (stereo not shown) [2c, N-[4-(2-Adamantyl)phenethyl]-5-nitrofuran-2-carboxamide]	42 ± 8 nM	73 ± 8 nM	42	1.8 ± 0.2 µM	280 ± 80 nM	1200 ± 80 nM	–	–	0.05 µM	3.13 to 12.5 µM	–
O=C(Cn1ccnc1[N+](=O)[O-])NCCc1ccc(C2C3CC4CC(C3)CC2C4)cc1 (stereo not shown) [4c, N-[4-(2-Adamantyl)phenethyl]-2-(2-nitro-1H-imidazol-1-yl)acetamide]	–	–	–	–	–	–	–	–	37.9 µM	> 50 µM	SI > 1
